Experimental data from US4394503A, “Cephalosporin derivatives” (priority 1981, dated 1983).
In brackets after ≈: the same amount, converted by molar mass. Where two headings read alike, the source gives them in different places.

Legend:
[1] = system: Cephalothin-sensitive E. coli, Kl. pneumoniae and Pr. mirabilis (Gn-Ia); experiment: In vitro antibacterial activity, two-fold agar dilution, Mueller-Hinton agar (Table 1), group Gn-Ia; format: cell-based; conditions: read-out: Geometric Mean of MIC
[2] = system: S. aureus BX-1633; experiment: MIC against selected test organisms (Table 2); format: cell-based; conditions: Staphylococcus aureus, BX1633, read-out: Minimum Inhibitory Concentration
[3] = system: S. aureus Smith; experiment: MIC against selected test organisms (Table 2); format: cell-based; conditions: Staphylococcus aureus; Gp-Ia, PC-S; read-out: Minimum Inhibitory Concentration
[4] = in vivo; conditions: mouse, im
Method: Blood samples were collected from the orbital sinuses into heparinized capillary tubes and assayed by the paper disc-agar diffusion method using E. coli as the test organism. The half-life values and areas under the curve were determined.

[5] = system: E. coli Juhl; experiment: MIC against selected test organisms (Table 2); format: cell-based; conditions: Escherichia coli, read-out: Minimum Inhibitory Concentration
[6] = system: S. aureus A15092; experiment: MIC against selected test organisms (Table 2); format: cell-based; conditions: Staphylococcus aureus, Gp-Ib, PC-R, read-out: Minimum Inhibitory Concentration
[7] = system: Penicillin-sensitive S. aureus (Gp-Ia); experiment: In vitro antibacterial activity, two-fold agar dilution, Mueller-Hinton agar (Table 1), group Gp-Ia; format: cell-based; conditions: Staphylococcus aureus; read-out: Geometric Mean of MIC
[8] = system: S. aureus A9497; experiment: MIC against selected test organisms (Table 2); format: cell-based; conditions: Staphylococcus aureus, Gp-Ia, PC-S, read-out: Minimum Inhibitory Concentration
[9] = system: C. difficile A21675; experiment: MIC against selected test organisms (Table 2); format: cell-based; conditions: Clostridioides difficile
[10] = system: P. morganii A9553; experiment: MIC against selected test organisms (Table 2); format: cell-based; conditions: Morganella morganii
[11] = system: E. cloacae A9656; experiment: MIC against selected test organisms (Table 2); format: cell-based; conditions: Enterobacter cloacae, Gn-II, CET-R, read-out: Minimum Inhibitory Concentration
[12] = system: Others Group IV (C. difficile, C. perfringens, P. acne and P. anaerobius); experiment: microbe, parasite or virus in culture; format: cell-based; conditions: read-out: Geometric Mean of MIC, GAM agar, 1 strain each
[13] = system: B. fragilis Group II; experiment: In vitro antianaerobic activity in GAM agar (Table 4); format: cell-based; conditions: Bacteroides fragilis, read-out: Geometric Mean of MIC, GAM agar, lactamase-producing, moderately ampicillin-resistant, 3 strains
[14] = system: B. fragilis Group III; experiment: as above; format: cell-based; conditions: read-out: Geometric Mean of MIC, GAM agar, lactamase-producing, highly ampicillin-resistant, 2 strains
[15] = system: B. fragilis Group I; experiment: as above; format: cell-based; conditions: Bacteroides fragilis, read-out: Geometric Mean of MIC, GAM agar, nonlactamase-producing, ampicillin-sensitive, 3 strains
[16] = Example 4, ceftazidime (mean of 3 experiments)
[17] = Example 5 ceftazidime (mean of 2 experiments)

## CSc1cc[n+](CC2=C(C(=O)[O-])N3C(=O)C(NC(=O)/C(=N\OC(C)(C)C(=O)O)c4csc(N)n4)C3SC2)cc1 (stereo not drawn) [Example 2, 7-[(Z)-2-(2-Aminothiazol-4-yl)-2-(2-carboxyprop-2-oxyimino)-acetamido]-3-[(4-methylthiopyridinium)methyl]-3-cephem-4-carboxylate]
[1]
  MIC: 0.066 µg/mL (≈ 0.111 µM)
[2]
  MIC: 6.3 µg/mL (≈ 10.6 µM)
[3]
  MIC: 6.3 µg/mL (≈ 10.6 µM)
[4]; 10 mg/kg
  AUC: 3700 ng·h/mL
  concentration at 10 min: 4500 ng/mL
  concentration at 20 min: 5100 ng/mL
  concentration at 0.5 h: 3800 ng/mL
  concentration at 40 min: 3200 ng/mL
  concentration at 1 h: 1100 ng/mL
  concentration at 1.5 h: 450 ng/mL
  half-life: 18 min
[4]; 20 mg/kg
  AUC: 10000 ng·h/mL
  concentration at 10 min: 12000 ng/mL
  concentration at 20 min: 12000 ng/mL
  concentration at 0.5 h: 9300 ng/mL
  concentration at 40 min: 8700 ng/mL
  concentration at 1 h: 4000 ng/mL
  concentration at 1.5 h: 1200 ng/mL
  half-life: 16 min
[5]; Gn-Ia, CET-S
  MIC: 0.1 µg/mL (≈ 0.169 µM)
[6]
  MIC: 6.3 µg/mL (≈ 10.6 µM)
[7]
  MIC: 4.7 µg/mL (≈ 7.93 µM)
[8]
  MIC: 3.1 µg/mL (≈ 5.23 µM)
[9]; A21675, Anaerobe, CLDM-R, read-out: Minimum Inhibitory Concentration
  MIC: > 100 µg/mL
[10]; A9553, Gn-II, CET-R, read-out: Minimum Inhibitory Concentration
  MIC: 1.6 µg/mL (≈ 2.7 µM)
[11]
  MIC: 0.2 µg/mL (≈ 0.337 µM)

## CC(C)(O/N=C(\C(=O)N[C@@H]1C(=O)N2C(C(=O)[O-])=C(C[n+]3ccccc3)CS[C@H]12)c1csc(N)n1)C(=O)O [Ceftazidime, ceftazidime, reference compound]
[1]
  MIC: 0.066 µg/mL (≈ 0.121 µM)
[12]; [16]
  MIC: 6.2 µg/mL (≈ 11.3 µM)
[12]; [17]
  MIC: 8.2 µg/mL (≈ 15 µM)
[4]; 10 mg/kg
  AUC: 5500 ng·h/mL
  concentration at 10 min: 8000 ng/mL
  concentration at 20 min: 7800 ng/mL
  concentration at 0.5 h: 5500 ng/mL
  concentration at 40 min: 3900 ng/mL
  concentration at 1 h: 1800 ng/mL
  concentration at 1.5 h: 400 ng/mL
  half-life: 16 min
[4]; 20 mg/kg
  AUC: 10000 ng·h/mL
  concentration at 10 min: 18000 ng/mL
  concentration at 20 min: 14000 ng/mL
  concentration at 0.5 h: 11000 ng/mL
  concentration at 40 min: 7700 ng/mL
  concentration at 1 h: 2400 ng/mL
  concentration at 1.5 h: 610 ng/mL
  half-life: 14 min
[13]; [16]
  MIC: 13 µg/mL (≈ 23.8 µM)
[13]; [17]
  MIC: 16 µg/mL (≈ 29.3 µM)
[5]
  MIC: 0.1 µg/mL (≈ 0.183 µM)
[14]; [16]
  MIC: 81 µg/mL (≈ 148 µM)
[14]; [17]
  MIC: > 100 µg/mL
[15]; [16]
  MIC: 5.3 µg/mL (≈ 9.7 µM)
[15]; [17]
  MIC: 8.9 µg/mL (≈ 16.3 µM)
[9]; A21675, read-out: Minimum Inhibitory Concentration
  MIC: > 100 µg/mL
[10]; A9553, read-out: Minimum Inhibitory Concentration
  MIC: 3.1 µg/mL (≈ 5.67 µM)
